Where “and” joins values, the source holds several entries; their conditions need not be identical. Equal entries are not always repeated.
Test system: 168753-222-R-J1-PDC complex spheroid viability
Experiment: Anticancer human tumor 168753-222-R-J1-PDC patient-derived bladder carcinoma cell line growth inhibition [CLK]
Settings: for viability, T/C: stronger effect = lower value
Summary of the method: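 Multi-cell-type spheroids combined patient-derived tumor cells with HUVEC endothelial cells and human mesenchymal stem cells. Paired agents were dosed in half-log steps down from about clinical Cmax, or from 10 microM where Cmax was unknown.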

[1] = curve of first compound, second compound 0.0316 µM
[2] = curve of first compound, second compound 0.1 µM
[3] = curve of first compound, second compound 0.316 µM
[4] = curve of first compound, second compound 1 µM
[5] = curve of first compound, second compound 3.16 µM
[6] = curve of first compound, second compound 10 µM
[7] = second compound 0.0316 µM, first compound 0.00316 µM
[8] = second compound 0.0316 µM, first compound 0.01 µM
[9] = second compound 0.0316 µM, first compound 0.0316 µM
[10] = second compound 0.0316 µM, first compound 0.1 µM
[11] = second compound 0.0316 µM, first compound 0.316 µM
[12] = second compound 0.0316 µM, first compound 1 µM
[13] = second compound 0.1 µM, first compound 0.00316 µM
[14] = second compound 0.1 µM, first compound 0.01 µM
[15] = second compound 0.1 µM, first compound 0.0316 µM
[16] = second compound 0.1 µM, first compound 0.1 µM
[17] = second compound 0.1 µM, first compound 0.316 µM
[18] = second compound 0.1 µM, first compound 1 µM
[19] = second compound 0.316 µM, first compound 0.00316 µM
[20] = second compound 0.316 µM, first compound 0.01 µM
[21] = second compound 0.316 µM, first compound 0.0316 µM
[22] = second compound 0.316 µM, first compound 0.1 µM
[23] = second compound 0.316 µM, first compound 0.316 µM
[24] = second compound 0.316 µM, first compound 1 µM
[25] = second compound 1 µM, first compound 0.00316 µM
[26] = second compound 1 µM, first compound 0.01 µM
[27] = second compound 1 µM, first compound 0.0316 µM
[28] = second compound 1 µM, first compound 0.1 µM
[29] = second compound 1 µM, first compound 0.316 µM
[30] = second compound 1 µM, first compound 1 µM
[31] = second compound 3.16 µM, first compound 0.00316 µM
[32] = second compound 3.16 µM, first compound 0.01 µM
[33] = second compound 3.16 µM, first compound 0.0316 µM
[34] = second compound 3.16 µM, first compound 0.1 µM
[35] = second compound 3.16 µM, first compound 0.316 µM
[36] = second compound 3.16 µM, first compound 1 µM
[37] = second compound 10 µM, first compound 0.00316 µM
[38] = second compound 10 µM, first compound 0.01 µM
[39] = second compound 10 µM, first compound 0.0316 µM
[40] = second compound 10 µM, first compound 0.1 µM
[41] = second compound 10 µM, first compound 0.316 µM
[42] = second compound 10 µM, first compound 1 µM
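Further: viability measured after seven days of drug exposure.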
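Wherever viability, T/C is given: luminescence signal used as surrogate for viable cell amount; 100% = DMSO vehicle control wells.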

## NC(=O)C(=Cn1cnc(-c2cc(C(F)(F)F)cc(C(F)(F)F)c2)n1)c1cncnc1 + CN1CCN(c2cc(C(=O)Nc3cc4cc(-c5cnn(C)c5)ccc4cn3)ccn2)CC1
[1]
  IC50: 56.2 nM
[2]
  IC50: 13.6 nM
[3]
  IC50: < 9.49 nM
[4]
  IC50: < 9.49 nM
[5]
  IC50: < 9.49 nM
[6]
  IC50: < 9.49 nM
Second compound 0.0316 µM, first compound 0.00949 µM
  viability, T/C: 75.6%
Second compound 0.0316 µM, first compound 0.03 µM
  viability, T/C: 72.3%
Second compound 0.0316 µM, first compound 0.0949 µM
  viability, T/C: 31.5%
Second compound 0.0316 µM, first compound 0.3 µM
  viability, T/C: 22.6%
Second compound 0.0316 µM, first compound 0.949 µM
  viability, T/C: 15%
Second compound 0.0316 µM, first compound 3 µM
  viability, T/C: 12.9%
Second compound 0.1 µM, first compound 0.00949 µM
  viability, T/C: 61.4%
Second compound 0.1 µM, first compound 0.03 µM
  viability, T/C: 25.2%
Second compound 0.1 µM, first compound 0.0949 µM
  viability, T/C: 10.8%
Second compound 0.1 µM, first compound 0.3 µM
  viability, T/C: 10.9%
Second compound 0.1 µM, first compound 0.949 µM
  viability, T/C: 5.67%
Second compound 0.1 µM, first compound 3 µM
  viability, T/C: 3.14%
Second compound 0.316 µM, first compound 0.00949 µM
  viability, T/C: 6.93%
Second compound 0.316 µM, first compound 0.03 µM
  viability, T/C: 4.81%
Second compound 0.316 µM, first compound 0.0949 µM
  viability, T/C: 0.76%
Second compound 0.316 µM, first compound 0.3 µM
  viability, T/C: 0.08%
Second compound 0.316 µM, first compound 0.949 µM
  viability, T/C: 0.11%
Second compound 0.316 µM, first compound 3 µM
  viability, T/C: 0.75%
Second compound 1 µM, first compound 0.00949 µM
  viability, T/C: 0.09%
Second compound 1 µM, first compound 0.03 µM
  viability, T/C: 0.15%
Second compound 1 µM, first compound 0.0949 µM
  viability, T/C: 0.1%
Second compound 1 µM, first compound 0.3 µM
  viability, T/C: 0.05%
Second compound 1 µM, first compound 0.949 µM
  viability, T/C: 0.06%
Second compound 1 µM, first compound 3 µM
  viability, T/C: 0.72%
Second compound 3.16 µM, first compound 0.00949 µM
  viability, T/C: 0.06%
Second compound 3.16 µM, first compound 0.03 µM
  viability, T/C: 0.22%
Second compound 3.16 µM, first compound 0.0949 µM
  viability, T/C: 0.75%
Second compound 3.16 µM, first compound 0.3 µM
  viability, T/C: 0.08%
Second compound 3.16 µM, first compound 0.949 µM
  viability, T/C: 0.69%
Second compound 3.16 µM, first compound 3 µM
  viability, T/C: 0.12%
Second compound 10 µM, first compound 0.00949 µM
  viability, T/C: 0.87%
Second compound 10 µM, first compound 0.03 µM
  viability, T/C: 0.14%
Second compound 10 µM, first compound 0.0949 µM
  viability, T/C: 0.3%
Second compound 10 µM, first compound 0.3 µM
  viability, T/C: 0.13%
Second compound 10 µM, first compound 0.949 µM
  viability, T/C: 0.22%
Second compound 10 µM, first compound 3 µM
  viability, T/C: 0.56%

## C=CC(=O)N1CCN(c2nc(=O)n(-c3c(C)ccnc3C(C)C)c3nc(-c4c(O)cccc4F)c(F)cc23)C(C)C1 (stereo not drawn)
Compound 0.0316 µM
  viability, T/C: 91% and 86.6%
Compound 0.1 µM
  viability, T/C: 111% and 92.8%
Compound 0.316 µM
  viability, T/C: 101% and 92.3%
Compound 1 µM
  viability, T/C: 110% and 103%
Compound 3.16 µM
  viability, T/C: 106% and 121%
Compound 10 µM
  viability, T/C: 103% and 74.9%
Curve of compound
  IC50: > 10000 nM

## CCN1CCN(Cc2ccc(Nc3ncc(F)c(-c4cc(F)c5nc(C)n(C(C)C)c5c4)n3)nc2)CC1 + CN1CCN(c2cc(C(=O)Nc3cc4cc(-c5cnn(C)c5)ccc4cn3)ccn2)CC1
[1]
  IC50: 8.23 nM
[2]
  IC50: 7.04 nM
[3]
  IC50: < 3.16 nM
[4]
  IC50: < 3.16 nM
[5]
  IC50: < 3.16 nM
[6]
  IC50: < 3.16 nM
[7]
  viability, T/C: 76.3%
[8]
  viability, T/C: 44.8%
[9]
  viability, T/C: 29.6%
[10]
  viability, T/C: 36.7%
[11]
  viability, T/C: 22.4%
[12]
  viability, T/C: 26.2%
[13]
  viability, T/C: 76.5%
[14]
  viability, T/C: 38.7%
[15]
  viability, T/C: 20.5%
[16]
  viability, T/C: 19.9%
[17]
  viability, T/C: 17.4%
[18]
  viability, T/C: 12.6%
[19]
  viability, T/C: 11.4%
[20]
  viability, T/C: 9.45%
[21]
  viability, T/C: 8.81%
[22]
  viability, T/C: 8.47%
[23]
  viability, T/C: 10.7%
[24]
  viability, T/C: 12.1%
[25]
  viability, T/C: 0.18%
[26]
  viability, T/C: 0.21%
[27]
  viability, T/C: 1.13%
[28]
  viability, T/C: 0.13%
[29]
  viability, T/C: 1.24%
[30]
  viability, T/C: 0.34%
[31]
  viability, T/C: 0.09%
[32]
  viability, T/C: 0.13%
[33]
  viability, T/C: 0.44%
[34]
  viability, T/C: 0.08%
[35]
  viability, T/C: 1.18%
[36]
  viability, T/C: 0.99%
[37]
  viability, T/C: 0.11%
[38]
  viability, T/C: 0.29%
[39]
  viability, T/C: 0.24%
[40]
  viability, T/C: 0.13%
[41]
  viability, T/C: 1.1%
[42]
  viability, T/C: 1.36%

## CCc1c2c(nc3ccc(O)cc13)-c1cc3c(c(=O)n1C2)COC(=O)[C@]3(O)CC + CN1CCN(c2cc(C(=O)Nc3cc4cc(-c5cnn(C)c5)ccc4cn3)ccn2)CC1
[1]
  IC50: 16.9 nM
[2]
  IC50: < 3.16 nM
[3]
  IC50: < 3.16 nM
[4]
  IC50: < 3.16 nM
[5]
  IC50: < 3.16 nM
[6]
  IC50: < 3.16 nM
[7]
  viability, T/C: 77.7%
[8]
  viability, T/C: 65.3%
[9]
  viability, T/C: 29.3%
[10]
  viability, T/C: 30.1%
[11]
  viability, T/C: 13.1%
[12]
  viability, T/C: 8.39%
[13]
  viability, T/C: 32.6%
[14]
  viability, T/C: 36.1%
[15]
  viability, T/C: 20.5%
[16]
  viability, T/C: 12.4%
[17]
  viability, T/C: 8.78%
[18]
  viability, T/C: 6.92%
[19]
  viability, T/C: 9.06%
[20]
  viability, T/C: 8.44%
[21]
  viability, T/C: 7.99%
[22]
  viability, T/C: 9.04%
[23]
  viability, T/C: 2.19%
[24]
  viability, T/C: 0.99%
[25]
  viability, T/C: 0.14%
[26]
  viability, T/C: 0.16%
[27]
  viability, T/C: 0.1%
[28]
  viability, T/C: 0.08%
[29]
  viability, T/C: 0.24%
[30]
  viability, T/C: 1.02%
[31]
  viability, T/C: 0.15%
[32]
  viability, T/C: 0.15%
[33]
  viability, T/C: 0.25%
[34]
  viability, T/C: 0.08%
[35]
  viability, T/C: 0.11%
[36]
  viability, T/C: 0.31%
[37]
  viability, T/C: 0.66%
[38]
  viability, T/C: 0.14%
[39]
  viability, T/C: 0.19%
[40]
  viability, T/C: 0.14%
[41]
  viability, T/C: 0.18%
[42]
  viability, T/C: 0.45%

Reference: PubChem BioAssay AID2060626 (Molecular Pharmacology Branch, DTP, NCI, 2025)
